Key:
HCT116 cell line = assay: Colorectal cancer cell line proliferation assay, HCT116; format: cell-based; settings: HCT116, compound alone 8.5 μM, non-significant
Procedure: Cell proliferation assay: Cells were seeded in 96-well plates (Costar) at different cell densities: HCT116, 500 cells per well; Caco-2, 1000 cells per well. Total volume of the medium was 90 μl per well. Cells were incubated for 24 hours at 37° C. and 5% CO2 incubator. […] The final concentration of the Compound of Formula (A) was 8.5 μM. […] The cell proliferation rate was measured by adding 100 μl of CellTiter-Glo™ (Promega) according to the manufacturer's instructions. After 10 minutes of incubation, the cell lysates were transferred into OptiPlate-384 well, the luminescence was recorded by BioTek Synergy™ 4 Hybrid Microplate Reader with Gen5 software. All data points were generated in five replicates. Three independent experiments were performed. […] All data were presented as the mean±standard error of the mean determined from three independent experiments.

CXCR1 receptor = target: T1, CXCR1 receptor (Homo sapiens, UniProt P25024); assay: Receptor binding assay ([125I] IL-8 SPA), CXCR1; set-up: expressed in transfected cells; host or cells: CHO cells (membranes); settings: [125I] IL-8 binding, CHO-CXCR1 membranes; read-out: pIC50 against the CXCR1 receptor (converted)
T1 sequence (P25024 1-350): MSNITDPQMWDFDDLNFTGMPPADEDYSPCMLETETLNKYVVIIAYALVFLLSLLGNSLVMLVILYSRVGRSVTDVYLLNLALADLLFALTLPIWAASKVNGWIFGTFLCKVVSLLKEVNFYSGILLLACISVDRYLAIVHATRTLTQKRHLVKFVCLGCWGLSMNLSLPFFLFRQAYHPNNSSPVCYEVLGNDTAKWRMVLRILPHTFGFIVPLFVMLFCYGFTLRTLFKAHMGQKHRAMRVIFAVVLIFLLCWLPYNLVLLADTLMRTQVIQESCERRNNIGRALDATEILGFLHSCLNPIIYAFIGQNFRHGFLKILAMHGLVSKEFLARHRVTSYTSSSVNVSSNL
Procedure: [^125I] IL-8 (human recombinant, IM249) was obtained from Amersham Corp., Arlington Heights, Ill., with specific activity 2000 Ci/mmol. All other chemicals were of analytical grade. High levels of recombinant human CXCR1 and CXCR2 receptors were individually expressed in Chinese hamster ovary (CHO) cells as described in Holmes, et al., Science, 1991, 253, 1278, incorporated herein to the extent required to perform the present assay. The Chinese hamster ovary membranes were prepared according to Haour, et al., J. Biol. Chem., 249 pp 2195-2205 (1974), incorporated herein to the extent required to perform the present assay, except that the homogenization buffer was changed to 40 mM Tris-HCL pH 7.5 containing 1 mM MgSO4, 0.5 mM EDTA (ethylene-diaminetetra-acetic acid), 1 mM PMSF (α-toluene-sulphonyl fluoride), 2.5 mg/L Leupeptin and 0.1 mg/ml Aprotinin. Membrane protein concentration was determined using Bio-Rad Reagent using bovine serum albumin as a standard. All binding assays were conducted using Scintillation Proximity Assay (SPA assay) using wheatgerm agglutinin beads in a 96-well micro plate (optiplate 96, Packard) format. […] The 96-well plates were incubated on a shaking platform for 1 hour. At the end of the incubation the plates were spun for 5 min at 2000 RPM, and counted in a Top Count counter.

CXCR2 receptor = target: T2, CXCR2 receptor (Homo sapiens, UniProt P25025); assay: Human whole blood assay version ii) (CD11b, GROα stimulated); format: cell-based; set-up: Assay d) measures the cellular functional activity to the native expressed human CXCR2 in whole blood; endogenous in cells; host or cells: human whole blood (neutrophils); settings: 33 nM GROα, neutrophil CD11b, read-out: pIC50 against the CXCR2 receptor (converted)
T2 sequence (P25025 1-360): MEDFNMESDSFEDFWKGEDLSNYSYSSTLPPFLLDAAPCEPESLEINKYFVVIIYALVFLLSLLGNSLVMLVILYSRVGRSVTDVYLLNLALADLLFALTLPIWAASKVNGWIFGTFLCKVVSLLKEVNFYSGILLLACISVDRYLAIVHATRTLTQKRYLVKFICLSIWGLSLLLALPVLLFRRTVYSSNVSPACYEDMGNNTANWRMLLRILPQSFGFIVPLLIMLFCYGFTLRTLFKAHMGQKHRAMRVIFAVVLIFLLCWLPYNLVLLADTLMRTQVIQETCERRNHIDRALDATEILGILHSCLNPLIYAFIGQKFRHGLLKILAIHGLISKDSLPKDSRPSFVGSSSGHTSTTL
Procedure: Blood was withdrawn by venipuncture from consented adults and poured into a Sterilin tube containing an anti-coagulant Heparin (10 μL/mL of blood). All the test compounds were dissolved in DMSO to 4 mM and serial diluted across the plate, 1 in 3 to provide 10 point dose response curves. The compounds were then diluted 100 fold in -PBS [Phosphate buffered saline (without Calcium Chloride and Magnesium Chloride)] after which, 1 μL was dispensed in 96 U bottom Costar plates using an FX. This was done to reduce the final DMSO concentration to 0.25% and for compounds to be screened at 10 uM final assay concentration, after addition of blood.
10 μL of blood was transferred to the compound plate using a multi-channel pipette, gently tapped and incubated for 15 minutes, at 37° C. After 15 minutes, the stimulant GROα was diluted to 100 nM in 0.1% BSA (Albumin Bovine Serum)-PBS and 5 μL is dispensed across the whole plate for a final concentration of 33 nM. The plate was gently tapped and incubated further for 15 minutes at 37° C. […]
Samples were run on a Becton and Dickinson (BD)-Acurri C6 Flow Cytometer using a HyperCyt sampling apparatus (IntelliCyt) with a flow rate 2 μL/sec. CD11 b upregulation is monitored in neutrophils and identified using a combination of both side scatter and CD16 expression.

O=C(Nc1ccc(Cl)c(S(=O)(=O)N2CCNCC2)c1O)Nc1cccc(F)c1Cl [Compound of Formula (A), 1-(4-chloro-2-hydroxy-3-(piperazin-1-ylsulfonyl)phenyl)-3-(2-chloro-3-fluorophenyl)urea]
decrease of basal proliferation (HCT116 cell line): 8.9±0.7%
IC50 (CXCR1 receptor): 3160 nM

CN1CCC(C)(S(=O)(=O)c2c(Cl)ccc(NC(=O)Nc3cccc(F)c3Cl)c2O)CC1 [Compound of Formula (D), 1-(4-chloro-3-((1,4-dimethylpiperidin-4-yl)sulfonyl)-2-hydroxyphenyl)-3-(2-chloro-3-fluorophenyl)urea]
IC50 (CXCR2 receptor): 1580 nM
